Source: ChEMBL document CHEMBL4808216, “Gut-Restricted Selective Cyclooxygenase-2 (COX-2) Inhibitors for Chemoprevention of Colorectal Cancer” (J Med Chem, 2021)
Values after ≈ are worked out from the molar mass of the structure shown.

Columns and labels:
[1] = target: T1, Prostaglandin G/H synthase 2 (Homo sapiens, UniProt P35354); experiment: Inhibition of COX2 (unknown origin) expressed in HEK293 TRex cells assessed as reduction in PGE2 production using arachidonic acid as substrate preincubated for 60 mins followed by substrate addition for 1 hr in presence of 10% FBS by RapidFire High-Throughput Mass Spectrometry; assay type: cell-based, HEK293-T-REx
T1 sequence (P35354 whole entry): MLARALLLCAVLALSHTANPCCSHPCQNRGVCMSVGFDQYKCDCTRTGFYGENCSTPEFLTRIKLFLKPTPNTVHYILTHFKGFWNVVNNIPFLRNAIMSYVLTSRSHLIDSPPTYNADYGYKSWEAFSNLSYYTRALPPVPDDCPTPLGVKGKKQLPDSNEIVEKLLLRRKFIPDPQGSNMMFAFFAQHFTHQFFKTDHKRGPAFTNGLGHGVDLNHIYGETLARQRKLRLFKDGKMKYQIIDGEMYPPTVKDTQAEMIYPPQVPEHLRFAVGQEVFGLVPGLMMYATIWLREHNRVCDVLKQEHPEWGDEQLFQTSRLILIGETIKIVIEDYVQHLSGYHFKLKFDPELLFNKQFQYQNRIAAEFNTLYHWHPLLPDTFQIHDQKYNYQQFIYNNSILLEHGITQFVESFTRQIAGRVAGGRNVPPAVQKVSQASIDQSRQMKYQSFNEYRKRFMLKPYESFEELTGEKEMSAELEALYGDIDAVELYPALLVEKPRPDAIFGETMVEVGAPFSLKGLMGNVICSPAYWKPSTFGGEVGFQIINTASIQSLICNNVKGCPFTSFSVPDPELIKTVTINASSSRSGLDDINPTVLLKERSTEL

[2] = target: T2, Prostaglandin G/H synthase 1 (Homo sapiens, UniProt P23219); experiment: Inhibition of human recombinant COX-1 assessed as reduction in peroxidase activity using arachidonic acid as substrate preincubated for 60 mins followed by substrate addition for 2 secs by ADPH based fluorometric analysis; assay type: ADME
[3] = target: T1, Prostaglandin G/H synthase 2; experiment: Inhibition of human recombinant COX-2 assessed as reduction in peroxidase activity using arachidonic acid as substrate preincubated for 60 mins followed by substrate addition for 2 secs by ADPH based fluorometric analysis
[4] = target: T2, Prostaglandin G/H synthase 1; experiment: Inhibition of COX1 (unknown origin) expressed in HEK293 TRex cells assessed as reduction in PGE2 production using arachidonic acid as substrate preincubated for 60 mins followed by substrate addition for 1 hr in presence of 10% FBS by RapidFire High-Throughput Mass Spectrometry; assay type: ADME, cell-based, HEK293-T-REx
[5] = Clearance in C57BL/6J mouse at 2 mg/kg, iv measured after 0.08 to 24 hrs; assay type: ADME, organism-based; details: in vivo, time 0.08-24 hrs
[6] = Drug concentration in C57BL/6J mouse colon at 10 mg/kg, po administered as cassette dose measured at 4 hrs by LC/MS/MS analysis; assay type: ADME, organism-based; details: read-out: Ct
[7] = Drug concentration in C57BL/6J mouse plasma at 10 mg/kg, po administered as cassette dose measured at 4 hrs by LC/MS/MS analysis; assay type: ADME, organism-based
[8] = Ratio of drug concentration in C57BL/6J mouse colon to plasma at 10 mg/kg, po measured after 4 hr by liquid chromatographic triple-quadrupole mass spectrometric method; assay type: ADME, organism-based; details: for Ratio: other tissue, 10 mg/kg, 4 h; for Kp at 4 h: C57BL/6J, colon / plasma
[9] = target: T1, Prostaglandin G/H synthase 2; experiment: Inhibition of human recombinant COX-2 using arachidonic acid as substrate preincubated for 60 mins followed by substrate addition for 2 secs by ADPH based fluorometric analysis
[10] = target: T1, Prostaglandin G/H synthase 2; experiment: Inhibition of COX2 in human whole blood assessed as reduction in LPS stimulated PGE2 production incubated for 1 hr by ELISA; assay type: tissue-based
[11] = target: T2, Prostaglandin G/H synthase 1; experiment: Inhibition of COX1 in human whole blood assessed as reduction in calcium ionophore-stimulated TXB2 production incubated for 1 hr by ELISA; assay type: tissue-based
[12] = Protein binding in human plasma assessed as unbound fraction; assay type: ADME, cell-free
[13] = Protein binding in human colon assessed as unbound fraction; assay type: ADME, tissue-based
[14] = Equilibrium solubility of compound in FASSIF at pH 6.5; assay type: physicochemical
[15] = Drug concentration in C57BL/6J mouse portal vein plasma at 10 mg/kg, po administered as cassette dose measured at 4 hrs by LC/MS/MS analysis; assay type: ADME, organism-based
Mus musculus [16] = experiment: Chemo-protective activity in C57BL/6J mouse model of spontaneous GI-tract tumor Apc-min assessed as 18F-FDG uptake in ileum at 300 mg/kg, po incorporated into chow diet administered daily for 2 weeks and measured after 14 days by ex vivo PET imaging analysis relative to control; assay type: functional
Homo sapiens = organism: Homo sapiens; experiment: Selectivity ratio of IC50 for COX1 in human whole blood assessed as reduction in calcium ionophore-stimulated TXB2 production to IC50 for COX2 in human whole blood assessed as reduction in LPS stimulated PGE2 production; assay type: tissue-based
[17] = target: T3, Prostaglandin G/H synthase 2 (Homo sapiens) (UniProt P35354)
T3 sequence (whole entry): T1 sequence (P35354 whole entry)
Description: Protein occupancy at human recombinant COX-2 assessed as dissociation half life

in vivo = details: C57BL/6J, mouse, colon / portal vein plasma, po, 10 mg/kg
Description: Ratio of drug concentration in C57BL/6J mouse colon to portal vein plasma at 10 mg/kg, po measured after 4 hr by liquid chromatographic triple-quadrupole mass spectrometric method

HEK293 = experiment: Selectivity ratio of IC50 for COX1 (unknown origin) expressed in HEK293 TRex cells assessed as reduction in PGE2 production to IC50 for COX2 (unknown origin) expressed in HEK293 TRex cells assessed as reduction in PGE2 production; assay type: cell-based; details: Homo sapiens
Mus musculus [18] = experiment: Antitumor activity in C57BL/6J mouse model of spontaneous GI-tract tumor Apc-min assessed as reduction in total ileum polyp area at 300 mg/kg, po administered as suspension for 10 to 12 weeks; assay type: functional; details: time 10-12 weeks, read-out: TGI
[19] = Half life in human liver microsomes; assay type: ADME, Microsome
[20] = Half life in mouse liver microsomes; assay type: ADME, Microsome
[21] = Half life in human hepatocytes; assay type: ADME, cell-based, Hepatocyte
[22] = Half life in mouse hepatocytes; assay type: ADME, cell-based, Hepatocyte
[23] = Volume of distribution at steady state in C57BL/6J mouse at 2 mg/kg, iv measured after 0.08 to 24 hrs; assay type: ADME, organism-based; details: C57BL/6J, in vivo, time 0.08-24 hrs, read-out: Vdss
[24] = Half life in C57BL/6J mouse at 2 mg/kg, iv measured after 0.08 to 24 hrs; assay type: ADME, organism-based; details: C57BL/6J, in vivo, time 0.08-24 hrs
[25] = Tmax in C57BL/6J mouse at 10 mg/kg, po administered as cassette dose measured at 4 hrs by liquid chromatographic triple-quadrupole mass spectrometric method; assay type: ADME, organism-based; details: in vivo
Mus musculus [26] = experiment: Antitumor activity in C57BL/6J mouse model of spontaneous GI-tract tumor Apc-min assessed as mouse survival at 100 mg/kg, po administered daily as suspension and measured at day 82 by Kaplan-Meier method; assay type: functional

T2 sequence (P23219 whole entry): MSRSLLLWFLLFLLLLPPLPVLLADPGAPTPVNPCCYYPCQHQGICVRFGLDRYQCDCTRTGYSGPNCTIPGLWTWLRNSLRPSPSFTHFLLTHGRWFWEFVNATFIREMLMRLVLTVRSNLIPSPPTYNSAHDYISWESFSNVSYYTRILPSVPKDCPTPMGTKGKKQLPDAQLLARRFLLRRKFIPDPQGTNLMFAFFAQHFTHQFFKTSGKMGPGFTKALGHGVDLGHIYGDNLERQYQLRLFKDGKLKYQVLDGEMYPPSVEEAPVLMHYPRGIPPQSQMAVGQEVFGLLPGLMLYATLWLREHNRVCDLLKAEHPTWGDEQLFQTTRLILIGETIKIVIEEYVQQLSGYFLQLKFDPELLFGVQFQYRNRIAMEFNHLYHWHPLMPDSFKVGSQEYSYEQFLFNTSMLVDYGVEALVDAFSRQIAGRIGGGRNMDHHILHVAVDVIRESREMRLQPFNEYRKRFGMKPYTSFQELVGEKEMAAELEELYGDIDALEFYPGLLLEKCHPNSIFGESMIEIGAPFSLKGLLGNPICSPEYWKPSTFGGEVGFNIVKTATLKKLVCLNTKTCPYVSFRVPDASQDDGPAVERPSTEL

Compound	IC50 [1] [µM]	IC50 [2] [µM]	IC50 [3] [µM]	IC50 [4] [µM]	clearance [5] [mL/min/kg]	concentration at 4 h [6] [ng/g]	concentration at 4 h [7] [ng/mL]	Kp at 4 h [8]	also measured
CC(C)(O)COc1ncc(CO)cc1-c1ccc(S(C)(=O)=O)cc1	> 50	> 50	> 50	> 50	–	–	–	–	–
CCCCOc1nc(OCC2(O)COC2)c(-c2ccc(S(C)(=O)=O)cc2)cc1CO	1.32	–	–	> 50	68.6	11900	7.7	–	Ratio [8]: 1596
CCCCOc1nc(OCC2(C)COC2)c(-c2ccc(S(C)(=O)=O)cc2)cc1CO	0.21	–	–	> 50	89.3	1850	2	–	Ratio [8]: 1040
COCCOc1nc(OCC(C)(C)O)c(-c2ccc(S(C)(=O)=O)cc2)cc1CO	2.95	> 50	18.2	> 50	–	–	–	–	–
CCCCOc1nc(OCC2(O)CCC2)c(-c2ccc(S(C)(=O)=O)cc2)cc1CO	0.037	> 50	0.12	7.23	100	5390	9.9	545	Ki [9]: 0.003 µM; IC50 [10]: 0.146 µM; IC50 [11]: > 60 µM; fraction unbound [12]: 0.005; fraction unbound [13]: 0.055; solubility thermodynamic [14]: 56.1 µM (≈ 24.4 µg/mL); concentration at 4 h [15]: 82.4 ng/mL; Activity (Mus musculus [16]): 61.2%; Ratio IC50 (Homo sapiens): > 200; T1/2 [17]: 39 h; Kp at 4 h (in vivo): 69.9
CCCCOc1nc(-c2ccc(F)cc2)c(-c2ccc(S(C)(=O)=O)cc2)cc1CO	0.049	–	–	0.511	32.2	1940	75.9	24.9	Ratio IC50 (HEK293): 10
CCCCOc1nc(OCC(C)(C)O)c(-c2ccc(S(N)(=O)=O)cn2)cc1CO	0.23	> 50	0.45	> 50	–	12000	5.5	–	Ratio [8]: 2179; Ki [9]: 0.019 µM; IC50 [10]: 7.23 µM; IC50 [11]: > 60 µM; fraction unbound [12]: 0.002; fraction unbound [13]: 0.075; solubility thermodynamic [14]: 63.1 µM (≈ 26.8 µg/mL); concentration at 4 h [15]: 7.1 ng/mL; Activity (Mus musculus [16]): 54.8%; inhibition in vivo at 300 mg/kg (Mus musculus [18]): 25%; T1/2 [17]: 23 h
CC(C)Oc1nc(OCC(C)(C)O)c(-c2ccc(S(C)(=O)=O)cc2)cc1CO	> 50	> 50	4.1	> 50	–	–	–	–	–
CC(C)(O)COc1ncc(C(F)(F)F)cc1-c1ccc(S(C)(=O)=O)cc1	1.5	> 50	0.39	> 50	0.54	8400	9800	0.9	half-life [19]: > 3.07 h; half-life [20]: > 3.07 h; half-life [21]: > 6.18 h; half-life [22]: > 6.18 h; Vd [23]: 1.55 L/kg; half-life [24]: 38.5 h; Tmax [25]: 3 h
Cc1ccc(-c2ncc(Cl)cc2-c2ccc(S(C)(=O)=O)cc2)cn1 [ETORICOXIB]	–	> 50	–	> 50	41.3	55.7	36.4	1.5	half-life [19]: > 3.07 h; half-life [20]: 0.897 h; half-life [21]: > 6.18 h; half-life [22]: 0.487 h; Vd [23]: 1.27 L/kg; half-life [24]: 0.78 h; Tmax [25]: 0.25 h; IC50 [11]: 93.8 µM; fraction unbound [12]: 0.114; solubility thermodynamic [14]: 358 µM (≈ 128 µg/mL); concentration at 4 h [15]: 48.6 ng/mL; Activity (Mus musculus [16]): 43.5%; Survival (Mus musculus [26]): >82 days; T1/2 [17]: 6.1 h; Kp at 4 h (in vivo): 1.2
CCCCOc1nc(OCC(C)(C)O)c(-c2ccc(S(C)(=O)=O)cc2)cc1C(C)(C)O	1.21	–	–	> 50	58.8	85.8	35.8	2.5	–
CCc1cnc(OCC(C)(C)O)c(-c2ccc(S(C)(=O)=O)cc2)c1	0.95	> 50	3.24	> 50	65.6	51.6	21.8	2.5	half-life [19]: 1.15 h; half-life [20]: 0.22 h; half-life [21]: 1.4 h; half-life [22]: 0.0533 h; Vd [23]: 1.35 L/kg; half-life [24]: 0.32 h; Tmax [25]: 0.25 h
Cc1cnc(OCC(C)(C)O)c(-c2ccc(S(C)(=O)=O)cc2)c1	1.89	> 50	6.36	> 50	–	–	–	–	–
CCCCOc1nc(OCC2COC2)c(-c2ccc(S(C)(=O)=O)cc2)cc1CO	0.036	–	–	2.46	102	1870	6.7	402	Ratio IC50 (HEK293): 70
CCCCOc1nc(OCC(C)(C)O)c(-c2ccc(S(C)(=O)=O)cc2)cc1C(C)O (centres undefined)	2.34	–	–	7.69	48.2	2810	22.8	134	–
CCCCOc1nc(OCC(C)(C)O)c(-c2ccc(S(C)(=O)=O)cc2)cc1C(=O)O	–	–	> 50	–	–	–	–	–	–
COc1nc(OCC(C)(C)O)c(-c2ccc(S(C)(=O)=O)cc2)cc1CO	> 50	> 50	17.1	> 50	–	–	–	–	–
CCCCOc1nc(OCC(C)(C)O)c(-c2ccc(S(C)(=O)=O)cc2)cc1COCCO	0.54	–	–	> 50	55.4	478	28.7	16.5	–
Cc1ccc(-c2cc(C(F)(F)F)nn2-c2ccc(S(N)(=O)=O)cc2)cc1 [CELECOXIB]	–	–	–	–	10.5	9460	2550	–	half-life [19]: 1.12 h; half-life [20]: 0.988 h; half-life [21]: 0.957 h; half-life [22]: 0.552 h; Vd [23]: 0.94 L/kg; half-life [24]: 1.27 h; Tmax [25]: 0.25 h; Fu [12]: 0.3%; fraction unbound [13]: 0.0031; solubility thermodynamic [14]: 134 µM (≈ 50.9 µg/mL); concentration at 4 h [15]: 2150 ng/mL; Activity (Mus musculus [16]): 31.4%; inhibition in vivo at 300 mg/kg (Mus musculus [18]): 65.9%; Survival (Mus musculus [26]): >82 days
